According to article PMC12881681 (Molecular Pharmacology, 2025):

Tests used:
[1] = biological target: T1, human liver cytosolic AOX1 (Homo sapiens, UniProt Q06278); experiment: Effects of a competing AOX1 substrate and a competitive AOX1 inhibitor on AOX1 inactivation; assay type: biochemical; design: Enzymatic reaction was initiated by adding human liver cytosol (100 μg); tissue Corning, Inc. (Gentest brand) 452115; host or cells: human liver cytosol, pool of 150 donors; conditions: human liver cytosol; for effect of O^6-benzylguanine on extent of AOX1 inactivation: O^6-benzylguanine 120, 240 (480) μM; for effect of O^6-benzylguanine on extent of AOX1 inactivation / effect of gefitinib on extent of AOX1 inactivation: carbazeran 4-oxidation; for effect of gefitinib on extent of AOX1 inactivation: gefitinib 3, 10, 30 μM
T1 sequence (Q06278 1-1338): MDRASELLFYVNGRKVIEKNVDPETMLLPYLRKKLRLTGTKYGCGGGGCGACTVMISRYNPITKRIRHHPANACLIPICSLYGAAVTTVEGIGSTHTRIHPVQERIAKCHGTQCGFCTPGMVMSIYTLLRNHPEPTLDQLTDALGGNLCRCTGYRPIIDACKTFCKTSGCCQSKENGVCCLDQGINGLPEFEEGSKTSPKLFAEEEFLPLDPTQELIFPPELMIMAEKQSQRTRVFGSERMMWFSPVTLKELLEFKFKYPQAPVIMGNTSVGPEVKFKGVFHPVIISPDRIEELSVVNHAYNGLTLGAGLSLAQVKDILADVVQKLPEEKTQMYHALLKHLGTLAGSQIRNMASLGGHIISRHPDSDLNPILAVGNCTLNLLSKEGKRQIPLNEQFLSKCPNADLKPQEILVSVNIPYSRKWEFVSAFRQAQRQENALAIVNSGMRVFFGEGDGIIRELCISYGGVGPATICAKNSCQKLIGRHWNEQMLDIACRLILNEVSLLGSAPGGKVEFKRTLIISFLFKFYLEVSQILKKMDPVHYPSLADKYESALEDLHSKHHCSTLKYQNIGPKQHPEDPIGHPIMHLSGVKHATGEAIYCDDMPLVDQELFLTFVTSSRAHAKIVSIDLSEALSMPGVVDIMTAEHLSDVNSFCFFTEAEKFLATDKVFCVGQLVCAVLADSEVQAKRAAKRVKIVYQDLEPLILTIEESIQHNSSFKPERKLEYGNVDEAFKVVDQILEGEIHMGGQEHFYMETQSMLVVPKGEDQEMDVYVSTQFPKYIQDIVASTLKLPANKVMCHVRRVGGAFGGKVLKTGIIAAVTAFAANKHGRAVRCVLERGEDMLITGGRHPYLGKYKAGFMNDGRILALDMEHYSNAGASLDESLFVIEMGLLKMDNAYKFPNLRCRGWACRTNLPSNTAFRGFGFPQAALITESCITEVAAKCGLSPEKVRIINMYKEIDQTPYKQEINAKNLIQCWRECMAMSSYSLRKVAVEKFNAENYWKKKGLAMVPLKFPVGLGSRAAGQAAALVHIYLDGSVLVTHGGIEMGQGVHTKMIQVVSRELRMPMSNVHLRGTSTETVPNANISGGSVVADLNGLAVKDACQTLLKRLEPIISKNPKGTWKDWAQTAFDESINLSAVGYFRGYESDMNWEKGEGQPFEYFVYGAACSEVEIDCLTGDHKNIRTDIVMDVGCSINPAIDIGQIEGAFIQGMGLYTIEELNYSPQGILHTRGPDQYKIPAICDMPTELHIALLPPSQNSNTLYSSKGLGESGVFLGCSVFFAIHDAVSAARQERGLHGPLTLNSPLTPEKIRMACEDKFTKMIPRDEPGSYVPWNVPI
Procedure: The molar ratio of O^6-benzylguanine (120, 240, and 480 μM) to 3-vinylerlotinib (10 μM) was 12, 24, and 48, O^6-benzylguanine to 4′-methylerlotinib (3 μM) was 40, 80, and 160, and O^6-benzylguanine to 2-methylerlotinib (1 μM) was 120, 240, and 480, respectively. […] Each standard incubation mixture was subjected to the same procedures as described in Enzyme Inactivation Experiments. The residual AOX1 enzyme activity was determined by the carbazeran 4-oxidation or O^6-benzylguanine 8-oxidation assay.

[2] = biological target: T1, human liver cytosolic AOX1; experiment: Dialysis experiment (reversibility of AOX1 inactivation); assay type: biochemical; design: Enzymatic reaction was initiated by adding human liver cytosol (100 μg); tissue Corning, Inc. (Gentest brand) 452115; host or cells: human liver cytosol, pool of 150 donors; conditions: 1.5 μM; for recovery of carbazeran 4-oxidation activity after dialysis: 4 and 24 hours of dialysis at 4 °C; for residual AOX1 activity: 6-minute preincubation, % of nondialyzed vehicle control
Procedure: Simultaneously, another aliquot (150 μL) of the primary incubation mixture was transferred to a Slide-A-Lyzer mini dialysis device (0.1 mL) with a molecular weight cutoff of 10,000 (Pierce Chemical Co.) and placed in a beaker filled with 300 mL of ice-cold potassium phosphate buffer (100 mM, pH 7.4). Additionally, potassium phosphate buffer (300 mL) was replaced at 2 and 4 hours after the start of dialysis. Dialysis was performed at 4 °C for 4 and 24 hours with constant gentle stirring. Subsequently, 10 μL of the dialyzed mixture was transferred to the secondary incubation mixture and the residual AOX1 enzyme activity was determined by the carbazeran 4-oxidation assay.

[3] = biological target: T1, human liver cytosolic AOX1; experiment: AOX1 inactivation, O^6-benzylguanine 8-oxidation by human liver cytosol; assay type: biochemical; design: Enzymatic reaction was initiated by adding human liver cytosol (100 μg); tissue Corning, Inc. (Gentest brand) 452115; host or cells: human liver cytosol, pool of 150 donors; conditions: gefitinib 3, 10, 30 μM
[4] = Human plasma concentrations after erlotinib dosing (literature)
[5] = biological target: T1, human liver cytosolic AOX1; experiment: Effects of nucleophilic trapping agents and scavengers of reactive oxygen species on AOX1 inactivation; assay type: biochemical; design: Enzymatic reaction was initiated by adding human liver cytosol (100 μg); tissue Corning, Inc. (Gentest brand) 452115; host or cells: human liver cytosol, pool of 150 donors; conditions: inactivator 1.5 μM; for effect of catalase and superoxide dismutase on AOX1 inactivation: catalase 1000 and 2000 U, superoxide dismutase 500 and 1000 U; for effect of glutathione and N-acetylcysteine on AOX1 inactivation: glutathione or N-acetylcysteine 5 and 10 mM, 6 min
Procedure: The control incubations were described in our previous publication.[28] Each standard incubation mixture was subjected to the same procedures as described in Enzyme Inactivation Experiments. The residual AOX1 enzyme activity was determined by the carbazeran 4-oxidation assay.

SMILES | effect of O^6-benzylguanine on extent of AOX1 inactivation [1] | effect of gefitinib on extent of AOX1 inactivation [1] | recovery of carbazeran 4-oxidation activity after dialysis [2] | residual AOX1 activity ([2]; 24-hour dialysis at 4 °C) [%] | residual AOX1 activity ([2]; without dialysis) [%] | effect of gefitinib on extent of AOX1 inactivation [3] | Cmax,u ([4]; Cmax,u = plasma fu × Cmax, plasma fu = 0.07) [nM] | effect of catalase and superoxide dismutase on AOX1 inactivation [5] | effect of glutathione and N-acetylcysteine on AOX1 inactivation [5] | decrease in carbazeran 4-oxidation in the presence of gefitinib ([1]; inactivator 1.5 μM + 3 μM gefitinib) [%] | decrease in carbazeran 4-oxidation in the presence of gefitinib ([1]; inactivator 1.5 μM + 10 μM gefitinib) [%] | decrease in carbazeran 4-oxidation in the presence of gefitinib ([1]; inactivator 1.5 μM + 30 μM gefitinib) [%] | Cmax,u ([4]; in vivo) [nM]
C#Cc1cc(Nc2ncnc3cc(OCCOC)c(OCCOC)cc23)ccc1C [4′-Methylerlotinib, 4′-methylerlotinib] | attenuated | attenuated | – | – | – | – | – | – | – | – | – | – | –
C#Cc1cccc(Nc2ncnc3cc(OCCOC)c(OCCOC)cc23)c1 [Erlotinib] | attenuated | – | not recovered | 3.7 | 7.8 | attenuated | 310 to 380 | did not protect | did not reduce the inactivation | 73 | 55 | 47 | –
C#Cc1cccc(Nc2nc(C)nc3cc(OCCOC)c(OCCOC)cc23)c1 [2-Methylerlotinib, 2-methylerlotinib] | attenuated | attenuated | – | – | – | – | – | – | – | – | – | – | –
C=Cc1cccc(Nc2ncnc3cc(OCCOC)c(OCCOC)cc23)c1 [3-Vinylerlotinib, 3-vinylerlotinib] | attenuated | attenuated | – | – | – | – | – | – | – | – | – | – | –
C#Cc1cccc(Nc2ncnc3cc(OCCOC)c(OCCO)cc23)c1 [O-Desmethylerlotinib, O-desmethylerlotinib] | attenuated | attenuated | not reversed | – | – | attenuated | – | did not protect | did not reduce the inactivation | – | – | – | 7.7 to 20
C#Cc1cccc(Nc2ncnc3cc(OCCO)c(OCCO)cc23)c1 [O-Didesmethylerlotinib, O-didesmethylerlotinib] | attenuated | attenuated | not reversed | – | – | attenuated | – | did not protect | did not reduce the inactivation | – | – | – | 0.1 to 0.8
